Experimental data as given in article PMC8296573, “Synthesis and Biological Evaluation of Fingolimod Derivatives as Antibacterial Agents” (ACS Omega, 2021).
Values after ≈ are worked out from the molar mass of the structure shown. Where two headings read alike, the source gives them in different places.

Columns and labels:
S. aureus ATCC 25923 [1] = assay: Antibacterial activity, pre-exposure (planktonic cells and biofilm formation); type: cell-based, Staphylococcus aureus; details: for MIC / inhibition at 5 µM / inhibition at 10 µM / inhibition at 15 µM / inhibition at 25 µM: Staphylococcus aureus, ATCC25923; for inhibition at 5 µM / inhibition at 10 µM / inhibition at 15 µM / inhibition at 25 µM / Average inhibition %, biofilms viability / Average inhibition %, planktonic cells viability: pre-exposure, ± SD
Procedure, shortened: (§1)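 Read-outs were turbidity and resazurin reduction for planktonic cells, and resazurin followed by crystal violet biomass (A595) for biofilms. Compounds were present from inoculation onward, with 18 h aerobic growth at 37 °C under shaking.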

S. aureus ATCC 25923 [2] = assay: Antibacterial activity, post-exposure on preformed 18-h-old biofilms; type: cell-based, Staphylococcus aureus; details: ± SD; for inhibition at 25 µM / inhibition at 50 µM / inhibition at 100 µM / inhibition at 200 µM: Staphylococcus aureus; for inhibition at 25 µM: ATCC25923, 25 µM; for inhibition at 50 µM: ATCC25923, 50 µM; for inhibition at 100 µM: ATCC25923, 100 µM; for inhibition at 200 µM: ATCC25923, 200 µM
Procedure, shortened: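 Biofilms grown 18 h without compound, medium then replaced and compound added for a further 24 h. Planktonic OD and resazurin (20 μM final) fluorescence (ex 560/em 590 nm) read; washed biofilms stained with 20 μM resazurin 30 min at 37 °C, then ethanol-fixed and crystal violet-stained, absorbance 595 nm.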

A. baumannii NCTC 13423 = assay: Antibacterial activity, pre-exposure; type: cell-based, Acinetobacter baumannii; details: for Average inhibition %, biofilms viability / Average inhibition %, planktonic cells viability / inhibition at 10 µM / inhibition at 15 µM / inhibition at 25 µM / inhibition at 50 µM: A. baumannii NCTC 13423, pre-exposure, ± SD; for inhibition at 10 µM / inhibition at 15 µM / inhibition at 25 µM / inhibition at 50 µM / MIC: Acinetobacter baumannii, NCTC13423
Procedure, shortened: as §1

P. aeruginosa ATCC 9027 = assay: Antibacterial activity, pre-exposure; type: cell-based, Pseudomonas aeruginosa; details: for Average inhibition %, biofilms viability / Average inhibition %, planktonic cells viability / inhibition at 50 µM / inhibition at 100 µM / inhibition at 150 µM / inhibition at 200 µM: P. aeruginosa ATCC 9027, pre-exposure, ± SD; for inhibition at 50 µM / inhibition at 100 µM / inhibition at 150 µM / inhibition at 200 µM: Pseudomonas aeruginosa, ATCC9027
Procedure, shortened: as §1

[3] = 10 µM, read-out: Average inhibition %, biofilms biomass
[4] = 10 µM, read-out: Average inhibition %, planktonic cells turbidity
[5] = 15 µM, read-out: Average inhibition %, biofilms biomass
[6] = 15 µM, read-out: Average inhibition %, planktonic cells turbidity
[7] = 25 µM, read-out: Average inhibition %, biofilms biomass
[8] = 25 µM, read-out: Average inhibition %, planktonic cells turbidity
[9] = read-out: Average inhibition %, biofilms biomass
[10] = read-out: Average inhibition %, planktonic cells turbidity
[11] = 50 µM, read-out: Average inhibition %, biofilms biomass
[12] = 50 µM, read-out: Average inhibition %, planktonic cells turbidity

CCCCCCCCCCc1ccc2nc(CC(N)(CO)CO)ccc2c1 [Compound 83, 2-Amino-2-[(6-decylquinolin-2-yl)methyl]propane-1,3-diol]
MIC (S. aureus ATCC 25923 [1]; lowest concentration with no visible growth (>90% inhibition of turbidity and viability of planktonic cells), 18 h, read-out: MIC S. aureus ATCC 25923): 10 µM (≈ 3.73 µg/mL) | inhibition at 5 µM (S. aureus ATCC 25923 [1]; 5 µM, read-out: Average inhibition %, biofilms biomass): 37.3 ± 7.9% | inhibition at 5 µM (S. aureus ATCC 25923 [1]; 5 µM, read-out: Average inhibition %, planktonic cells turbidity): 37.9 ± 5.1% | inhibition at 10 µM (S. aureus ATCC 25923 [1]; [3]): 97.3 ± 0.8% | inhibition at 10 µM (S. aureus ATCC 25923 [1]; [4]): 99.5 ± 0.2% | inhibition at 15 µM (S. aureus ATCC 25923 [1]; [5]): 93.9 ± 1.4% | inhibition at 15 µM (S. aureus ATCC 25923 [1]; [6]): 99.4 ± 0.1% | inhibition at 25 µM (S. aureus ATCC 25923 [1]; [7]): 89.4 ± 1.4% | inhibition at 25 µM (S. aureus ATCC 25923 [1]; [8]): 99 ± 0.2% | MIC (S. aureus ATCC 25923 [1]; read-out: MIC (S. aureus)): 10 µM (≈ 3.73 µg/mL) | Average inhibition %, biofilms viability (S. aureus ATCC 25923 [1]; 5 µM): 34.6 ± 5.8% | Average inhibition %, planktonic cells viability (S. aureus ATCC 25923 [1]; 5 µM): 6.9 ± 10.7% | Average inhibition %, biofilms viability (S. aureus ATCC 25923 [1]; 10 µM): 99.6 ± 0.4% | Average inhibition %, planktonic cells viability (S. aureus ATCC 25923 [1]; 10 µM): 99.6 ± 0% | Average inhibition %, biofilms viability (S. aureus ATCC 25923 [1]; 15 µM): 99.8 ± 0.6% | Average inhibition %, planktonic cells viability (S. aureus ATCC 25923 [1]; 15 µM): 99.6 ± 0% | Average inhibition %, biofilms viability (S. aureus ATCC 25923 [1]; 25 µM): 99.6 ± 0.4% | Average inhibition %, planktonic cells viability (S. aureus ATCC 25923 [1]; 25 µM): 99.7 ± 0% | Average inhibition %, biofilms viability (S. aureus ATCC 25923 [2]; 25 µM): 16.8 ± 17.2% | Average inhibition %, planktonic cells viability (S. aureus ATCC 25923 [2]; 25 µM): 14.1 ± 20.9% | Average inhibition %, biofilms viability (S. aureus ATCC 25923 [2]; 50 µM): 34.4 ± 15.3% | Average inhibition %, planktonic cells viability (S. aureus ATCC 25923 [2]; 50 µM): 22.7 ± 19.5% | Average inhibition %, biofilms viability (S. aureus ATCC 25923 [2]; 100 µM): 56.6 ± 18.2% | Average inhibition %, planktonic cells viability (S. aureus ATCC 25923 [2]; 100 µM): 80.3 ± 17.9% | Average inhibition %, biofilms viability (S. aureus ATCC 25923 [2]; 200 µM): 58.6 ± 19.5% | Average inhibition %, planktonic cells viability (S. aureus ATCC 25923 [2]; 200 µM): 88.3 ± 12.1% | inhibition at 25 µM (S. aureus ATCC 25923 [2]; [9]): 31.7 ± 20.9% | inhibition at 25 µM (S. aureus ATCC 25923 [2]; [10]): 27.1 ± 19.8% | inhibition at 50 µM (S. aureus ATCC 25923 [2]; [9]): 50.3 ± 6.4% | inhibition at 50 µM (S. aureus ATCC 25923 [2]; [10]): 28.3 ± 13.2% | inhibition at 100 µM (S. aureus ATCC 25923 [2]; [9]): 71.3 ± 10.2% | inhibition at 100 µM (S. aureus ATCC 25923 [2]; [10]): 64.4 ± 14% | inhibition at 200 µM (S. aureus ATCC 25923 [2]; [9]): 71.5 ± 5.8% | inhibition at 200 µM (S. aureus ATCC 25923 [2]; [10]): 65.3 ± 5.8% | Average inhibition %, biofilms viability (A. baumannii NCTC 13423; 10 µM): 0.7 ± 1.2% | Average inhibition %, planktonic cells viability (A. baumannii NCTC 13423; 10 µM): 8 ± 5.8% | Average inhibition %, biofilms viability (A. baumannii NCTC 13423; 15 µM): 1.2 ± 2.2% | Average inhibition %, planktonic cells viability (A. baumannii NCTC 13423; 15 µM): 7.2 ± 6.6% | Average inhibition %, biofilms viability (A. baumannii NCTC 13423; 25 µM): 5.6 ± 6.6% | Average inhibition %, planktonic cells viability (A. baumannii NCTC 13423; 25 µM): 3.1 ± 3.1% | Average inhibition %, biofilms viability (A. baumannii NCTC 13423; 50 µM): 68.9 ± 2.6% | Average inhibition %, planktonic cells viability (A. baumannii NCTC 13423; 50 µM): 95.2 ± 1.7% | inhibition at 10 µM (A. baumannii NCTC 13423; [3]): 6.4 ± 9.4% | inhibition at 10 µM (A. baumannii NCTC 13423; [4]): 0% | inhibition at 15 µM (A. baumannii NCTC 13423; [5]): 0% | inhibition at 15 µM (A. baumannii NCTC 13423; [6]): 0% | inhibition at 25 µM (A. baumannii NCTC 13423; [7]): 0% | inhibition at 25 µM (A. baumannii NCTC 13423; [8]): 11.8 ± 12.4% | inhibition at 50 µM (A. baumannii NCTC 13423; [11]): 10.4 ± 10.2% | inhibition at 50 µM (A. baumannii NCTC 13423; [12]): 88.3 ± 1.5% | MIC (A. baumannii NCTC 13423; pre-exposure, Inactive = no activity up to 50 μM, > = some inhibition but no MIC reached, read-out: MIC A. baumannii NCTC 13423): > 50 µM | MIC (A. baumannii NCTC 13423; supplementary molecular formula strings sheet, read-out: MIC (A. baumannii)): > 50 µM | Average inhibition %, biofilms viability (P. aeruginosa ATCC 9027; 50 µM): 12.2 ± 21.1% | Average inhibition %, planktonic cells viability (P. aeruginosa ATCC 9027; 50 µM): 10.5 ± 6.5% | Average inhibition %, biofilms viability (P. aeruginosa ATCC 9027; 100 µM): 0.5 ± 0.9% | Average inhibition %, planktonic cells viability (P. aeruginosa ATCC 9027; 100 µM): 14.8 ± 0.4% | Average inhibition %, biofilms viability (P. aeruginosa ATCC 9027; 150 µM): 2.6 ± 3.8% | Average inhibition %, planktonic cells viability (P. aeruginosa ATCC 9027; 150 µM): 20.2 ± 15% | Average inhibition %, biofilms viability (P. aeruginosa ATCC 9027; 200 µM): 1.1 ± 1% | Average inhibition %, planktonic cells viability (P. aeruginosa ATCC 9027; 200 µM): 16.3 ± 15.7% | inhibition at 50 µM (P. aeruginosa ATCC 9027; [11]): 6.4 ± 11.1% | inhibition at 50 µM (P. aeruginosa ATCC 9027; [12]): 35.2 ± 3% | inhibition at 100 µM (P. aeruginosa ATCC 9027; 100 µM, read-out: Average inhibition %, biofilms biomass): 2.1 ± 2.3% | inhibition at 100 µM (P. aeruginosa ATCC 9027; 100 µM, read-out: Average inhibition %, planktonic cells turbidity): 38.6 ± 10.1% | inhibition at 150 µM (P. aeruginosa ATCC 9027; 150 µM, read-out: Average inhibition %, biofilms biomass): 1.3 ± 2.3% | inhibition at 150 µM (P. aeruginosa ATCC 9027; 150 µM, read-out: Average inhibition %, planktonic cells turbidity): 34.8 ± 16.4% | inhibition at 200 µM (P. aeruginosa ATCC 9027; 200 µM, read-out: Average inhibition %, biofilms biomass): 3.7 ± 4.7% | inhibition at 200 µM (P. aeruginosa ATCC 9027; 200 µM, read-out: Average inhibition %, planktonic cells turbidity): 33.2 ± 7.3% | MIC P. aeruginosa ATCC 9027 (P. aeruginosa ATCC 9027; pre-exposure, Inactive = no activity up to 200 μM, > = some inhibition but no MIC reached): Inactive
